The subject of the assay is CD8F1 mice, subcutaneous mammary adenocarcinoma, T/C%. Nature of the assay: NCI In Vivo Anticancer Drug Screen. Data for tumor model Mammary Adenocarcinoma CD8F1 (subcutaneous) in CD8F1. The following applies: higher = larger tumour. A digest of the protocol: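 Tumor-bearing mice, transplantable model; readout survival or tumor size; value = treated (T) / vehicle control (C).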

[1] abbreviates: endpoint: median tumor weight (est.), dose: 6.25 mg/kg/injection, schedule: Q07DX005 (ip), vehicle: saline.
[2] abbreviates: endpoint: median tumor weight (est.), dose: 12.5 mg/kg/injection, schedule: Q07DX005 (ip), vehicle: saline.
Where [3] appears, read: endpoint: median tumor weight (est.), dose: 25.0 mg/kg/injection, schedule: Q07DX005 (ip), vehicle: saline.
[4] abbreviates: endpoint: median tumor weight (est.), dose: 50.0 mg/kg/injection, schedule: Q07DX005 (ip), vehicle: saline.
Setting [5] is: endpoint: median tumor weight (est.), dose: 100.0 mg/kg/injection, schedule: Q07DX005 (ip), vehicle: saline.
[6] abbreviates: endpoint: median tumor weight (est.), dose: 200.0 mg/kg/injection, schedule: Q07DX005 (ip), vehicle: saline.
The mark [7] stands for this setting: endpoint: median tumor weight (est.), dose: 12.5 mg/kg/injection, schedule: Q07DX005 (ip), vehicle: Klucel (hydroxypropylcellulose) (HPC).
Where [8] appears, read: endpoint: median tumor weight (est.), dose: 25.0 mg/kg/injection, schedule: Q07DX005 (ip), vehicle: Klucel (hydroxypropylcellulose) (HPC).
[9] abbreviates: endpoint: median tumor weight (est.), dose: 50.0 mg/kg/injection, schedule: Q07DX005 (ip), vehicle: Klucel (hydroxypropylcellulose) (HPC).

Values joined by “and” are separate entries in the source; they are usually repeats but may differ in a detail not shown here. Equal values may be shown once. Records with an inconclusive call do not appear.

As for `N=[N+]=CC(=O)OCC(N)C(=O)O` (stereo not drawn), the T/C was 76 % of control (endpoint: median tumor weight (est.), dose: 6.25 mg/kg/injection, schedule: Q07DX005 (ip), vehicle: clinical formulation); 58 % of control and 79 % of control (endpoint: median tumor weight (est.), dose: 6.25 mg/kg/injection, schedule: Q07DX005 (ip), vehicle: water); 71 % of control (endpoint: median tumor weight (est.), dose: 12.5 mg/kg/injection, schedule: Q07DX005 (ip), vehicle: clinical formulation); 32 % of control (endpoint: median tumor weight (est.), dose: 25.0 mg/kg/injection, schedule: Q07DX005 (ip), vehicle: clinical formulation); 29 % of control (endpoint: median tumor weight (est.), dose: 50.0 mg/kg/injection, schedule: Q07DX005 (ip), vehicle: clinical formulation); 65 % of control (endpoint: median tumor weight (est.), dose: 50.0 mg/kg/injection, schedule: Q07DX005 (ip), vehicle: water).
Turning to `COc1ccc2c(c1)C(O)(CN)CCCCC(OC)CCCC2` (stereo not drawn), the T/C (endpoint: median tumor weight change, dose: 62.5 mg/kg/injection, schedule: Q01DX001 (ip), vehicle: Klucel (hydroxypropylcellulose) (HPC)) is 121 % of control.
Consider `C1CN2CN3CCN(CN1C3)C2`, for which the T/C is, setting by setting: (endpoint: mean tumor weight, dose: 12.5 mg/kg/injection, schedule: Q07DX006 (ip), vehicle: saline) 85 % of control; (endpoint: mean tumor weight, dose: 25.0 mg/kg/injection, schedule: Q07DX006 (ip), vehicle: saline) 104 % of control; (endpoint: mean tumor weight, dose: 50.0 mg/kg/injection, schedule: Q07DX006 (ip), vehicle: saline) 79 % of control; (endpoint: mean tumor weight, dose: 100.0 mg/kg/injection, schedule: Q07DX006 (ip), vehicle: saline) 26 % of control; under setting [1], 75 % of control; under setting [2], 107 % of control. The T/C is 93 % of control under setting [3], 82 % of control under setting [4], 107 % of control under setting [5] and 67 % of control under setting [6].
`COC1=NCN=C2SC=C(N)N=C12`: the T/C was 208 % of control under setting [1], 76 % of control under setting [2], 107 % of control under setting [3] and 156 % of control under setting [4].
`COC1/C=C\C=C(/C)C(=O)NC2=CC(=O)C=C(C2=O)C(OC)C(C)CC(OC)C(OC)C(C)/C=C(/C)C1OC(N)=O` (stereo not drawn): the T/C (endpoint: median tumor weight change, dose: 1.88 mg/kg/injection, schedule: Q01DX001 (ip), vehicle: Klucel (hydroxypropylcellulose) (HPC)) was 103 % of control and the T/C (endpoint: median tumor weight change, dose: 3.75 mg/kg/injection, schedule: Q01DX001 (ip), vehicle: Klucel (hydroxypropylcellulose) (HPC)) was 46 % of control.
With `Brc1c(NC2=NCCN2)ccc2nccnc12`, the T/C was 52 % of control (endpoint: median tumor weight change, dose: 15.6 mg/kg/injection, schedule: Q01DX001 (ip), vehicle: saline); 77 % of control (endpoint: median tumor weight change, dose: 31.25 mg/kg/injection, schedule: Q01DX001 (ip), vehicle: saline); 81 % of control (endpoint: median tumor weight change, dose: 62.5 mg/kg/injection, schedule: Q01DX001 (ip), vehicle: saline); 92 % of control (endpoint: median tumor weight change, dose: 125.0 mg/kg/injection, schedule: Q01DX001 (ip), vehicle: saline); 53 % of control (endpoint: median tumor weight change, dose: 250.0 mg/kg/injection, schedule: Q01DX001 (ip), vehicle: saline).
For the molecule `CS(=O)(=O)OCCN(CCOS(C)(=O)=O)c1ccc(C=Nc2ccc(-c3csc(COc4ccccc4)n3)cc2)cc1`, the T/C by setting is: (endpoint: median tumor weight (est.), dose: 6.25 mg/kg/injection, schedule: Q07DX005 (ip), vehicle: Klucel (hydroxypropylcellulose) (HPC)) 88 % of control; under setting [7], 97 % of control and 103 % of control; under setting [8], 75 % of control and 79 % of control; under setting [9], 83 % of control; (endpoint: median tumor weight (est.), dose: 100.0 mg/kg/injection, schedule: Q07DX005 (ip), vehicle: Klucel (hydroxypropylcellulose) (HPC)) 27 % of control and 44 % of control.
Regarding `CN(C)CCOc1ccc2c(c1)C/C(=C/c1ncc([N+](=O)[O-])n1C)C2=O`, the T/C runs as follows: (endpoint: median tumor weight (est.), dose: 12.5 mg/kg/injection, schedule: Q07DX005 (ip), vehicle: saline with Tween-80) 113 % of control; (endpoint: median tumor weight (est.), dose: 25.0 mg/kg/injection, schedule: Q07DX005 (ip), vehicle: saline with Tween-80) 100 % of control; (endpoint: median tumor weight (est.), dose: 50.0 mg/kg/injection, schedule: Q07DX005 (ip), vehicle: saline with Tween-80) 93 % of control; (endpoint: median tumor weight (est.), dose: 100.0 mg/kg/injection, schedule: Q07DX005 (ip), vehicle: saline with Tween-80) 61 % of control.
With `COP12(OCCO1)SC(C(F)(F)F)=C(C(F)(F)F)S2`, the T/C is 210 % of control under setting [3]; 183 % of control under setting [4]; 351 % of control under setting [5]; 159 % of control under setting [6]; 72 % of control (endpoint: median tumor weight (est.), dose: 400.0 mg/kg/injection, schedule: Q07DX005 (ip), vehicle: saline).
As for `O=C1C2(Cl)C3(Cl)C4(Cl)C(Cl)(Cl)C5(Cl)[C@]3(Cl)C1(Cl)[C@]5(Cl)C24Cl` (stereo partly drawn), the T/C is 71 % of control under setting [7], 91 % of control under setting [8] and 67 % of control under setting [9].
With `CC(/C=C/c1ccccc1)=Nc1ccccc1`, the T/C was 107 % of control (endpoint: median tumor weight change, dose: 125.0 mg/kg/injection, schedule: Q01DX001 (ip), vehicle: saline with Tween-80); 97 % of control (endpoint: median tumor weight change, dose: 250.0 mg/kg/injection, schedule: Q01DX001 (ip), vehicle: saline with Tween-80); 99 % of control (endpoint: median tumor weight change, dose: 500.0 mg/kg/injection, schedule: Q01DX001 (ip), vehicle: saline with Tween-80).
Regarding `Cc1nc(N)nc(N)c1-c1ccc(Cl)c(Cl)c1`, the T/C was 120 % of control (endpoint: mean tumor weight (est.), dose: 10.0 mg/kg/injection, schedule: Q07DX003 (ip), vehicle: saline with Tween-80); 20 % of control (endpoint: median tumor weight change, dose: 12.5 mg/kg/injection, schedule: Q01DX001 (ip), vehicle: saline with Tween-80); 79 % of control (endpoint: median tumor weight change, dose: 12.5 mg/kg/injection, schedule: Q01DX001 (ip), vehicle: suspension in saline); 50 % of control (endpoint: median tumor weight change, dose: 25.0 mg/kg/injection, schedule: Q01DX001 (ip), vehicle: saline with Tween-80); 38 % of control (endpoint: median tumor weight change, dose: 25.0 mg/kg/injection, schedule: Q01DX001 (ip), vehicle: suspension in saline); 8 % of control (endpoint: median tumor weight change, dose: 50.0 mg/kg/injection, schedule: Q01DX001 (ip), vehicle: saline with Tween-80). Further, the T/C (endpoint: median tumor weight change, dose: 50.0 mg/kg/injection, schedule: Q01DX001 (ip), vehicle: suspension in saline) is 12 % of control.
As for `Oc1ccccc1C=NCCC[N-]CCCN=Cc1ccccc1O.[Co]`, the T/C was 162 % of control (endpoint: median tumor weight (est.), dose: 12.5 mg/kg/injection, schedule: Q07DX005 (ip), vehicle: suspension in saline); 223 % of control (endpoint: median tumor weight (est.), dose: 25.0 mg/kg/injection, schedule: Q07DX005 (ip), vehicle: suspension in saline); 180 % of control (endpoint: median tumor weight (est.), dose: 50.0 mg/kg/injection, schedule: Q07DX005 (ip), vehicle: suspension in saline); 97 % of control (endpoint: median tumor weight (est.), dose: 100.0 mg/kg/injection, schedule: Q07DX005 (ip), vehicle: suspension in saline).
Turning to `BrCCC1(CCBr)CCCCC1`, the T/C (endpoint: median tumor weight change, dose: 125.0 mg/kg/injection, schedule: Q01DX001 (ip), vehicle: other) is 80 % of control; the T/C (endpoint: median tumor weight change, dose: 250.0 mg/kg/injection, schedule: Q01DX001 (ip), vehicle: other) is 79 % of control; the T/C (endpoint: median tumor weight change, dose: 500.0 mg/kg/injection, schedule: Q01DX001 (ip), vehicle: other) was 83 % of control; the T/C (endpoint: median tumor weight change, dose: 1000.0 mg/kg/injection, schedule: Q01DX001 (ip), vehicle: other) is 109 % of control; the T/C (endpoint: median tumor weight change, dose: 2000.0 mg/kg/injection, schedule: Q01DX001 (ip), vehicle: other) was 119 % of control.
`Cc1c2cc[n+](CCN3CCCCC3)cc2c(C)c2c1[nH]c1ccc(O)cc12`: the T/C runs as follows: (endpoint: median tumor weight change, dose: 7.81 mg/kg/injection, schedule: Q01DX001 (ip), vehicle: suspension in saline) 83 % of control; (endpoint: median tumor weight change, dose: 15.6 mg/kg/injection, schedule: Q01DX001 (ip), vehicle: suspension in saline) 102 % of control and 116 % of control.
`CC1=C(/C=C/C(C)=C/C=C/C(C)=C/CO)C(C)(C)CCC1`: the T/C (endpoint: median tumor weight (est.), dose: 8.0 mg/kg/injection, schedule: Q07DX005 (ip), vehicle: saline with Tween-80) was 195 % of control and the T/C (endpoint: median tumor weight (est.), dose: 32.0 mg/kg/injection, schedule: Q07DX005 (ip), vehicle: saline with Tween-80) was 118 % of control.

The values above are taken from PubChem BioAssay AID220 (DTP/NCI, 2004).
